In patent publication US20200371122A1, “BIOMARKER FOR SENESCENT CELLS” (Buck Institute for Research on Aging, priority 2017, published 2020):

Test system: naïve nonsenescent IMR-90 fibroblasts
Assay: Conditioned media from senescent cells applied to naive IMR-90 fibroblasts (Col1a2, ACTA2 qPCR)
Assay type: cell-based, human
Description: RNA was extracted from cells or tissues using commercially available kits (Isolate II—Bioline for cells; Direct-zol—Zymo for tissues) according to the manufacturer's instructions. cDNA synthesis was performed using a High Capacity cDNA Reverse Transcription Kit (Thermo Fisher) according to the manufacturer's instructions. Quantitative PCR was performed on a LightCycler 480 II (Roche) using primers and probes designed for the Universal Probe Library. Primers and probes used for human transcripts were ACTB: 5′-CCAACCGCGAGAAGATGA (SEQ ID NO:1), 5′-TCCATCACGATGCCAGTG (SEQ ID NO:2), Probe #64; TUBA: 5′-cttcgtctccgccatcag (SEQ ID NO:3), 5′-ttgccaatctggacacca (SEQ ID NO:4), Probe #58; ALOX5: 5′-[…] (SEQ ID NO:5), 5′-[…] (SEQ ID NO:6), Probe #64; ALOX5AP: 5′-ggtctgcggggctacttt (SEQ ID NO:7), 5′-[…] (SEQ ID NO:8), Probe #18; ALOX12: 5′-[…] (SEQ ID NO:9), 5′-agccaggtcgtcaggag (SEQ ID NO:10), Probe #32; ALOX15: 5′-[…] (SEQ ID NO:11), 5′-[…] (SEQ ID NO:12), Probe #76; ALOX15B: 5′-[…] (SEQ ID NO:13), 5′-actgggaggcgaagaagg (SEQ ID NO:14), Probe #51; AKR1C1: 5′-catgcctgtcctgggattt (SEQ ID NO:15), 5′-[…] (SEQ ID NO:16), Probe #49; AKR1C2: 5′-ctatgcgcctgcagaggt (SEQ ID NO:17), 5′-[…] (SEQ ID NO:18), Probe #31; AKR1C3: 5′-[…] (SEQ ID NO:19), 5′-[…] (SEQ ID NO:20), Probe #78; CYSLTR2: 5′-[…] (SEQ ID NO:21), 5′-[…] (SEQ ID NO:22), Probe #18; DPEP1: 5′-gacgtcctgaggctggtg (SEQ ID NO:23), 5′-[…] (SEQ ID NO:24), Probe #9 (SEQ ID NO:25), ELOVL2: 5′-[…] (SEQ ID NO:26), 5′-[…] (SEQ ID NO:27), Probe #53; ELOVL4: 5′-catttggcccatggattc (SEQ ID NO:28), 5′-[…] (SEQ ID NO:29), Probe #31; ELOVL5: 5′-cccttccatgcgtccata (SEQ ID NO:30), 5′-[…] (SEQ ID NO:31), Probe #31; EPHX2: 5′-ttctgctggacaccctgaa (SEQ ID NO:32), 5′-[…] (SEQ ID NO:33), Probe #45; GPX4: 5′-ttcccgtgtaaccagttcg (SEQ ID NO:34), 5′-[…] (SEQ ID NO:35), Probe #36; LTA4H: 5′-ctgctctcacggtccagtc (SEQ ID NO:36), 5′-[…] (SEQ ID NO:37), Probe #64; LTBR2: 5′-[…] (SEQ ID NO:38), 5′-[…] (SEQ ID NO:39), Probe #33; LTC4S: 5′-[…] (SEQ ID NO:40), 5′-[…] (SEQ ID NO:41), Probe #18; PTGDS: 5′-[…] (SEQ ID NO:42), 5′-[…] (SEQ ID NO:43), Probe #36; PTGES: 5′-agagatgcctgcccacag (SEQ ID NO:44), 5′-tggccaccacgtacatctt (SEQ ID NO:45), Probe #4; PTGES2: 5′-[…] (SEQ ID NO:46), 5′-[…] (SEQ ID NO:47), Probe #49; PTGES3 (SEQ ID NO:48), 5′-[…] (SEQ ID NO:49), 5′-[…] (SEQ ID NO:50), Probe #48; PTGIS: 5′-[…] (SEQ ID NO:51), 5′-[…] (SEQ ID NO:52), Probe #45; PTGR1: 5′-atgatggggcagcaagtg (SEQ ID NO:53), 5′-cccatcagaaatggagtgc (SEQ ID NO:54), Probe #64; PTGS1: 5′-[…] (SEQ ID NO:55), 5′-gtggtggtccatgttcctg (SEQ ID NO:56), Probe #81; PTGS2: 5′-gatccccagggctcaaac (SEQ ID NO:57), 5′-[…] (SEQ ID NO:58), Probe #61; TBXAS1: 5′-[…] (SEQ ID NO:59), 5′-tgcctcccgtgtgaatct (SEQ ID NO:60), Probe #73; AREG: 5′-[…] (SEQ ID NO:61), 5′-[…] […]

| SMILES | collagen expression induced by CM from senescent cells (Day 2 CM, with or without TGF-beta, donor cells treated 24 h) | collagen expression induced by CM from senescent cells (Day 20 CM in the presence of TGF-beta) | smooth muscle actin expression (ACTA2) (regardless of time point) | decline of ACTA2 induction at Day 20 relative to Day 2 (Day 20 CM) |
| --- | --- | --- | --- | --- |
| CC(c1cc2ccccc2s1)N(O)C(N)=O (stereo not shown) [zileuton] | prevented this effect | again prevented | no effect |  |
| CS(=O)(=O)Nc1ccc([N+](=O)[O-])cc1OC1CCCCC1 [NS-398] |  |  |  | abrogated this decline |
